Legend:
[1] = Transport of geniposide across the HNEC monolayer; type: in vitro ADME, human; settings: human
Procedure: (§1) When HNECs reached approximately 80–90% confluence, the cells were detached with trypsin and were seeded at a density of 2×10^5 cells·cm^−2 on PET inserts. The culture medium was BEGM:DMEM/F12 (1∶1) in both sides at 37 °C in an atmosphere of 5% CO2 and 95% relative humidity, which was first changed after 24 h of seeding and then every 2 days.
(§2) The transport experiments were carried out when transepithelial electrical resistance (TEER) value was higher than 500 Ω·cm^2. The transport studies were performed by initially incubating the monolayers in Hanks balanced salt solution (HBSS) for 30 min at 37 °C. To measure apical (A) → basolateral (B) transport, 0.5 mL of drug solution and 1.5 mL of HBSS were added in the A and B sides, respectively. Basolateral (B) → apical (A) transport was evaluated by adding 1.5 mL of drug solution in B side and 0.5 mL of HBSS in A side.
(§3) Geniposide transport was studied at three concentrations: 25, 50 and 100 µg·mL^−1. The effect of borneol was studied at 27.8, 55.6 and 111.2 µg·mL^−1 concentrations in the presence of 50 µg·mL^−1 geniposide. The effect of muscone was studied at 4.17, 8.34 and 16.68 µg·mL^−1 concentrations in the presence of 50 µg·mL^−1 geniposide. Finally, the effects of both borneol and muscone were studied at the concentrations mentioned above in the presence of 50 µg·mL^−1 geniposide.
(§4) Each measurement was evaluated in triplicate. Cells were incubated in a 37 °C shaking incubator. Samples of 200 µL were taken from the apical side (to study B → A transport) and samples of 600 µL were taken from the basal side (to study A → B transport) at 30, 60, 90, 120, 150, 180 min time intervals. The same volume of fresh preheated HBSS was added to keep the volume constant. Samples were centrifuged for 10 min at 12,000 r·min^−1 and the supernatant was analyzed for geniposide by HPLC.
(§5) An UV-HPLC method was used to quantify the geniposide concentrations in the transport studies. The chromatographic conditions consisted of a Purospher Star C18 column (4×200 mm, particle size 5 µm) plus guard column. Geniposide samples were analyzed with UV detection (λ = 238 nm) and the mobile phase was composed of acetonitrile and water (16∶84, v/v). The mobile phase was pumped at a flow rate of 1 mL·min^−1 and the injected volume was 20 µL. In these conditions, the retention time of geniposide was 8.5 min.
(§6) The apparent permeability coefficients (Papp) for geniposide were calculated according to the following equation (2): [drawing 2] where Papp is the permeability, dQ/dt is the apparent appearance rate of drug in the receiver side calculated using linear regression of amounts in the receiver chamber versus time, C is the drug concentration in the donor chamber and S is the surface area of the monolayer. The efflux ratio (ER) was calculated according to the following equation (3): [drawing 3]

[2] = tested on: HNEC monolayer; test: Transport of geniposide across the HNEC monolayer; type: in vitro ADME, human; settings: for B→A fluxes of geniposide / A→B fluxes of geniposide: P<0.05 vs control
Procedure: as §1, §2, §3, §4, §5, §6

[3] = tested on: P-gp; test: P-gp substrate assessment from bidirectional transport in HNEC monolayer; type: in vitro ADME, human; settings: HNEC model
Procedure: as §2, §6

[4] = tested on: HNECs; test: Membrane fluidity of HNECs by FRAP; type: cell-based, human
Procedure: The cells were seeded on cell plate at a density of 5×10^4 cells·cm^−2. The above formulation groups were added and the plates were incubated for 3 h at 37 °C in a 5% CO2 incubator. Cells were rinsed with HBSS and stained with NBD-C6-HPC at 2 µg·mL^−1 for 30 min.
A method of fluorescence recovery after photobleaching (FRAP) was used here. After the definition of line scanning position, length and photobleaching position, the monolayer was visualized by a Confocal Laser Scanning Microscope under the following conditions: excitation wavelength of 488 nm, emission wavelength of 530 nm, laser power for fluorescence bleaching of 100%, bleaching time of 0.7 s, scanning frequency of 1.65 s and the total scanning time of 100 s. The fluorescence intensity time-variation at the photobleaching position was recorded and image formation was obtained by confocal tomoscanning.
The membrane fluidity was represented by fluorescence recovery rate (R) which was calculated with the following equation (4): [drawing 4] where F0 is the instant fluorescence value after photobleaching, F1 is the fluorescence value before photobleaching and F2 is the fluorescence recovery value after photobleaching.

[5] = mice, intravenous administration; cited from earlier work
[6] = cited from earlier work
[7] = rats, at 3 h; cited from earlier work
[8] = tested on: HNECs; test: MTT cytotoxicity assay on HNECs; type: cell-based, human; settings: 24 h
Procedure: The cytotoxicity of the main active ingredients in “Xing Nao Jing” on HNECs was evaluated by the methyl thiazolyl tetrazolium (MTT) colorimetric assay. Briefly, 100 µL of 5×10^4 cells·mL^−1 was seeded into 96-well plates. After 24 h, the medium was removed and replaced with a fresh medium containing increasing concentrations of geniposide, borneol, muscone and their combinations for another 24 h. After that, 15 µL of a 5 mg·mL^−1 MTT solution in 100 µL BEGM was added to each well. After 4 h of incubation, the supernatant was discarded and formazan crystals were dissolved in DMSO followed by vigorous mixing. Control wells were incubated with BEGM only and were treated similarly as above. The optical density was determined at 490 nm with a Multiskan Go microplate reader (Thermo, USA). The percent viability of the cells was determined from the absorbance values considering that of the control as 100%.
The percentage of cell toxicity in the MTT assay was calculated by the following equation (1): [drawing 1]

[9] = tested on: HNEC monolayer; test: TEER measurement of HNEC monolayer; type: cell-based, human
Procedure: Transepithelial electrical resistance was measured using an EVOM instrument (Millipore Corporation, USA) to check the monolayer integrity. The TEER of untreated cells and cells treated with borneol and muscone was determined in BEGM:DMEM/F12 (1∶1) before the experiment, after the experiment and after 24 h.

[10] = tested on: actin; test: Actin immunostaining of HNEC monolayer (tight junction); type: cell-based, human; settings: 3 h exposure with geniposide 50 µg·mL^−1, vs control
Excerpt: Cells cultured on 12-well polyester membrane Transwell clear inserts were stained for actin. […] Fluorescence was visualized on an epifluorescence microscope (IX-71, Olympus, Japan) using a blue filter and images were taken using the analysis software.

[11] = Ge 50 µg·mL^−1 +Bo 27.8 µg·mL^−1
[12] = Ge 50 µg·mL^−1 +Bo 27.8 µg·mL^−1 Mu 4.17 µg·mL^−1
[13] = Ge 50 µg·mL^−1 +Bo 55.6 µg·mL^−1
[14] = Ge 50 µg·mL^−1 +Bo 55.6 µg·mL^−1 Mu 8.34 µg·mL^−1
[15] = Ge 50 µg·mL^−1 +Bo 111.2 µg·mL^−1
[16] = Ge 50 µg·mL^−1 +Bo 111.2 µg·mL^−1 Mu 16.68 µg·mL^−1
[17] = Ge 50 µg·mL^−1 +Mu 4.17 µg·mL^−1
[18] = Ge 50 µg·mL^−1 +Mu 8.34 µg·mL^−1
[19] = Ge 50 µg·mL^−1 +Mu 16.68 µg·mL^−1
[20] = geniposide 50 µg·mL^−1 alone (control)

SMILES: COC(=O)C1=CO[C@@H](O[C@@H]2O[C@H](CO)[C@@H](O)[C@H](O)[C@H]2O)[C@@H]2C(CO)=CC[C@H]12 [geniposide, Geniposide]
- Papp A→B at 180 min, 50 µg·mL^−1 [1, 11]: 1.17 ± 0.12 ×10⁻⁶ cm/s
- Papp B→A at 180 min, 50 µg·mL^−1 [1, 11]: 1.61 ± 0.034 ×10⁻⁶ cm/s
- Papp A→B at 180 min, 50 µg·mL^−1 [1, 12]: 1.43 ± 0.083 ×10⁻⁶ cm/s
- Papp B→A at 180 min, 50 µg·mL^−1 [1, 12]: 1.81 ± 0.024 ×10⁻⁶ cm/s
- Papp A→B at 180 min, 50 µg·mL^−1 [1, 13]: 1.35 ± 0.086 ×10⁻⁶ cm/s
- Papp B→A at 180 min, 50 µg·mL^−1 [1, 13]: 1.92 ± 0.111 ×10⁻⁶ cm/s
- Papp A→B at 180 min, 50 µg·mL^−1 [1, 14]: 1.75 ± 0.043 ×10⁻⁶ cm/s
- Papp B→A at 180 min, 50 µg·mL^−1 [1, 14]: 1.916 ± 0.019 ×10⁻⁶ cm/s
- Papp A→B at 180 min, 50 µg·mL^−1 [1, 15]: 1.99 ± 0.293 ×10⁻⁶ cm/s
- Papp B→A at 180 min, 50 µg·mL^−1 [1, 15]: 1.99 ± 0.126 ×10⁻⁶ cm/s
- Papp A→B at 180 min, 50 µg·mL^−1 [1, 16]: 1.92 ± 0.049 ×10⁻⁶ cm/s
- Papp B→A at 180 min, 50 µg·mL^−1 [1, 16]: 2.39 ± 0.052 ×10⁻⁶ cm/s
- Papp A→B at 180 min, 50 µg·mL^−1 [1, 17]: 1.15 ± 0.068 ×10⁻⁶ cm/s
- Papp B→A at 180 min, 50 µg·mL^−1 [1, 17]: 1.6 ± 0.021 ×10⁻⁶ cm/s
- Papp A→B at 180 min, 50 µg·mL^−1 [1, 18]: 1.61 ± 0.054 ×10⁻⁶ cm/s
- Papp B→A at 180 min, 50 µg·mL^−1 [1, 18]: 2.039 ± 0.018 ×10⁻⁶ cm/s
- Papp A→B at 180 min, 50 µg·mL^−1 [1, 19]: 1.97 ± 0.108 ×10⁻⁶ cm/s
- Papp B→A at 180 min, 50 µg·mL^−1 [1, 19]: 2.104 ± 0.02 ×10⁻⁶ cm/s
- Papp A→B at 180 min, 25 µg·mL^−1 ([1]; geniposide 25 µg·mL^−1): 1.27 ± 0.314 ×10⁻⁶ cm/s
- Papp B→A at 180 min, 25 µg·mL^−1 ([1]; geniposide 25 µg·mL^−1): 1.35 ± 0.113 ×10⁻⁶ cm/s
- efflux ratio at 180 min, 25 µg·mL^−1 ([1]; geniposide 25 µg·mL^−1, read-out: ER±SD(B→A/A→B)): 1.1 ± 0.256
- Papp A→B at 180 min, 50 µg·mL^−1 [1, 20]: 1.22 ± 0.015 ×10⁻⁶ cm/s
- Papp B→A at 180 min, 50 µg·mL^−1 [1, 20]: 1.26 ± 0.084 ×10⁻⁶ cm/s
- efflux ratio at 180 min, 50 µg·mL^−1 ([1]; geniposide 50 µg·mL^−1 alone (control), read-out: ER±SD(B→A/A→B)): 1.03 ± 0.076
- Papp A→B at 180 min, 100 µg·mL^−1 ([1]; geniposide 100 µg·mL^−1): 1.25 ± 0.074 ×10⁻⁶ cm/s
- Papp B→A at 180 min, 100 µg·mL^−1 ([1]; geniposide 100 µg·mL^−1): 1.19 ± 0.104 ×10⁻⁶ cm/s
- efflux ratio at 180 min, 100 µg·mL^−1 ([1]; geniposide 100 µg·mL^−1, read-out: ER±SD(B→A/A→B)): 0.951 ± 0.132
- Papp at 180 min ([1]; HNEC monolayer, geniposide 25-100 µg·mL^−1, read-out: permeability coefficients): 1.22 to 1.27 ×10⁻⁶ cm/s
- ER±SD(B→A/A→B) [2, 11]: 1.388±0.162
- ER±SD(B→A/A→B) [2, 12]: 1.268±0.057
- ER±SD(B→A/A→B) [2, 13]: 1.429±0.149
- ER±SD(B→A/A→B) [2, 14]: 1.092±0.023
- ER±SD(B→A/A→B) [2, 15]: 1.012±0.106
- ER±SD(B→A/A→B) [2, 16]: 1.245±0.026
- ER±SD(B→A/A→B) [2, 17]: 1.400±0.071
- ER±SD(B→A/A→B) [2, 18]: 1.268±0.033
- ER±SD(B→A/A→B) [2, 19]: 1.072±0.069
- B→A fluxes of geniposide ([2]; Ge 50 µg·mL^−1 combined with borneol (27.8, 55.6, 111.2 µg·mL^−1)): significantly increased
- B→A fluxes of geniposide ([2]; Ge 50 µg·mL^−1 combined with muscone (4.17, 8.34, 16.68 µg·mL^−1)): significantly increased
- A→B fluxes of geniposide ([2]; Ge 50 µg·mL^−1 in presence of borneol (111.2 µg·mL^−1)): significantly increased
- A→B fluxes of geniposide ([2]; Ge 50 µg·mL^−1 in presence of muscone (8.34, 16.68 µg·mL^−1)): significantly increased
- permeability values in both directions ([2]; Ge 50 µg·mL^−1 in the presence of borneol and muscone (Bo 27.8/Mu 4.17, Bo 55.6/Mu 8.34, Bo 111.2/Mu 16.68 µg·mL^−1), P<0.05): an increasing of permeability values in both directions was observed in a concentration-dependent manner
- (B→A)/(A→B) permeability ER ([2]; geniposide 25, 50 and 100 µg·mL^−1): less than 2
- P-gp substrate [3]: not a P-gp substrate
- Fluorescence recovery rate R (%)±SD ([4]; Ge 50 µg·mL^−1 alone (control), 3 h): 33.08±1.74%
- brain/blood drug ratio [5]: about 10%
- apparent partition coefficient between octanol and water [6]: about 0.108
- absorption percentage in the intestinal tract [7]: about 15.9%
- concentration range with no cell cytotoxicity [8]: 0 to 400 µg/mL

SMILES: CC1(C)C2CCC1(C)C(O)C2 (centres unmarked) [borneol, Borneol]
- Fluorescence recovery rate R (%)±SD ([4]; Bo 27.8 µg·mL^−1 with Ge 50 µg·mL^−1, 3 h): 37.08±5.05%
- Fluorescence recovery rate R (%)±SD ([4]; Bo 55.6 µg·mL^−1 with Ge 50 µg·mL^−1, 3 h): 49.60±4.21 %
- Fluorescence recovery rate R (%)±SD ([4]; Bo 111.2 µg·mL^−1 with Ge 50 µg·mL^−1, 3 h): 57.33±4.62 %
- TEER after washing and incubating with BEGM:DMEM/F12 (1∶1) for 24 h ([9]; after permeation experiment): increased again
- TEER decrease during permeation studies, of the initial value ([9]; borneol 55.6, 111.2 µg·mL^−1, muscone 8.34, 16.68 µg·mL^−1, and combinations, P<0.05): 10–20%
- levels of the TJ proteins localized in the cell-cell junctions [10]: decreased
- concentration range with no cell cytotoxicity [8]: 0 to 300 µg/mL
